Entries after “also recorded” stand apart in the source; their conditions may differ.
Experiments:
V5-SPOP in HeLa cells = experiment: Immunofluorescence: V5-SPOP localization on coexpression of GFP–Pdx1 variants; format: cell-based; conditions: 24 h after transfection; for V5-SPOP localization, high Pdx1 expression: cells expressing GFP–Pdx1 at high levels (high GFP intensity); for V5-SPOP localization, low Pdx1 expression: cells expressing GFP–Pdx1 at low levels; for SPOP relocalization from nuclear speckles by Pdx1 variant: coexpressed with V5-SPOP, three biological replicates
Protocol: (§1) HeLa cells were cultured under sterile conditions with Dulbecco’s modified Eagle’s medium (DMEM) (Gibco) supplemented with 10% fetal bovine serum and antibiotics/antimycotics (Gibco) (see Table S5 for key reagents and resources). T-REx-293 cells (cat. no. R710-07) were obtained from Invitrogen. Cells were grown on DMEM supplemented with 10% fetal bovine serum (Gibco), GlutaMax (Gibco), and Penicillin-Streptomycin (Gibco) and kept under selection by 5 μg/ml blasticidin. All cells were grown at 37 °C under 5% CO2 and were mycoplasma free at the time the experiments were performed.
(§2) A plasmid encoding full-length human Pdx1 (amino acids 1-283) in pcDNA3.1 with a C-terminal GFP tag was purchased from GenScript. Full-length mouse SPOP (identical to the human sequence) with a V5 epitope tag in pcDNA3 was generated previously ([21]). The coding sequence for full-length mouse SPOP was inserted into pcDNA4/TO/myc (Invitrogen) for the T-REx system. pcDNA3-myc-CUL3 (cat no. 19893) and pcDNA–HA2–ROC1 (Rbx1) (cat no. 19897) were obtained from Addgene. pcDNA3 containing His-ubiquitin was a gift from Wenyi Wei.
For immunofluorescence experiments, 0.5 × 10^6 cells were seeded on borosilicate glass coverslips in 6-well plates. After 24 h, cells were transfected with 400 ng of each plasmid using the Qiagen Effectene transfection reagent according to the manufacturer protocol. 24 h after transfection, the cells were treated with 4% paraformaldehyde in PBS for 30 min at RT. Cells were permeabilized with 0.1% Triton X-100 in PBS (PBST) for 5 min at 21 °C, followed by blocking in 0.5% BSA in PBST for 1 h at 21 °C. Signal from GFP-tagged proteins was observed directly. Cells were stained in primary antibodies diluted in 0.5% BSA in PBST overnight at 4 °C with mouse anti-SC-35 (1:300, ab11826; Abcam) and chicken anti-V5 (1:300, NB600-379; Novus Biologicals). Cells were incubated with secondary antibodies for 2 h at 21 °C. The secondary antibodies used were goat anti-mouse Alexa Fluor 647 (1:250, A-21235; Thermo Fisher) and goat anti-chicken Alexa Fluor 555 (1:250, A-21437; Thermo Fisher). Cells on coverslips were treated with 300 nM 4′,6-diamidino-2-phenylindole (DAPI) for 5 min at 21 °C. Coverslips were mounted on glass slides with ProLong Diamond mounting reagent (Thermo Fisher) and cured before imaging on a Zeiss LSM 880 Upright microscope. All images were analyzed and prepared in Fiji ([53]).
All immunofluorescence data were averaged over three biological replicates. Cells not expressing both Pdx1 and SPOP were excluded from sampling. Raw images were collected in the Zeiss Zen software and then exported for viewing and analysis in Fiji. Nuclei of individual cells were designated manually in Fiji using the DAPI channel as a guide. The cells were binned based on whether SPOP was localized to nuclear speckles (puncta); cells with both diffuse and punctate SPOP signal were binned as “speckled.” The grayscale signal intensity of the green channel (Pdx1–GFP) was averaged over the DAPI-designated nuclear area. Next, the raw GFP intensity data points (one data point per cell analyzed) were plotted to generate a violin plot distribution. The average, minimum, and maximum values are shown by horizontal lines on the plot. Individual data points are also shown for rigor. […] All plotting and statistical tests were performed using in-house python scripts that can be found at https://github.com/idpemery/spop-pdx1.

HeLa cells = experiment: Immunofluorescence: subcellular localization / phase separation of the protein itself; format: cell-based; conditions: confocal fluorescence microscopy
Protocol: as §1, §2
For immunofluorescence experiments, 0.5 × 10^6 cells were seeded on borosilicate glass coverslips in 6-well plates. After 24 h, cells were transfected with 400 ng of each plasmid using the Qiagen Effectene transfection reagent according to the manufacturer protocol. 24 h after transfection, the cells were treated with 4% paraformaldehyde in PBS for 30 min at RT. Cells were permeabilized with 0.1% Triton X-100 in PBS (PBST) for 5 min at 21 °C, followed by blocking in 0.5% BSA in PBST for 1 h at 21 °C. Signal from GFP-tagged proteins was observed directly. […] All images were analyzed and prepared in Fiji ([53]).
All immunofluorescence data were averaged over three biological replicates. […] Next, the raw GFP intensity data points (one data point per cell analyzed) were plotted to generate a violin plot distribution. […]

SPOP = conditions: previously described, no reference given; cited from earlier work
Text: SPOP derives its name from the […]. Specifically, SPOP colocalizes with nuclear speckles but has also been reported in other subnuclear compartments ([24], [26]). The nuclear speckles that house SPOP in the absence of high concentrations of substrate are liquid-like in nature ([21]). The SPOP substrate DAXX typically localizes to promyelocytic leukemia bodies ([27]).

[1] = test system: SPOP-dependent turnover in T-REx-293 cells; experiment: SPOP-dependent Pdx1 stability (Western blot); format: cell-based; conditions: no MG132, harvested 28 h after transfection, Western blot (Fig. S3D)
Protocol: In a similar experiment, the cells were not treated with a proteasome inhibitor to observe the SPOP-dependent stability of each Pdx1 variant.
T-REx-293 cells (Invitrogen) were seeded at a density of 0.8 × 10^6 per well in 6-well plates (tissue culture–treated plates (cat. no 3516, Corning)). After 24 h, cells were transfected with plasmids encoding Pdx1–GFP, SPOP–myc, His–ubiquitin, HA–Rbx1, and myc–CUL3 (as indicated) using the Qiagen Effectene transfection reagent. 24 h after transfection, the cells were treated with either dimethyl sulfoxide or 20 μM MG132 for 4 h before being harvested. Cells were lysed in buffer A (6 M guanidine HCl, 100 mM sodium phosphate, pH 8.0, and 10 mM imidazole). The lysates were sonicated, cleared, and incubated with Ni-NTA Agarose (Qiagen) for 3 h at RT, followed by 16 h at 4 °C. The beads were washed twice with buffer A and twice with a buffer composed of 1:3 buffer A:buffer T1 (buffer T1: 25 mM Tris HCl, pH 8.0, and 20 mM imidazole). The beads were finally transferred to buffer T1 and then boiled in the SDS-PAGE loading buffer containing 300 mM imidazole. Pdx1 stability assays were performed as described above, except that the cells were not treated with MG132. Cells expressing Pdx1–GFP or a variant were harvested 28 h after transfection, resuspended in 2x SDS-loading dye, and boiled for 5 min before SDS-PAGE analysis.
All proteins were resolved by SDS-PAGE. Separated proteins were analyzed by immunoblotting using either the ECL or the ECL Select Western blotting detection reagents (Amersham). The antibodies used were mouse anti-Pdx1 used at 1:500 for pulldown or 1:2000 for inputs (clone 26771, MAB2419, R&D Systems), mouse anti-myc (1:250, clone 9E10, Santa Cruz Biotechnology), and rabbit anti-GAPDH (1:8000, clone EPR1689, Abcam). horseradish peroxidase-conjugated secondary antibodies were sourced from Jackson ImmunoResearch Laboratories and used at 1:20,000 dilution (goat anti-rabbit IgG, 111-035-003 and goat anti-mouse, 115-035-003).

## Pdx1: full-length human Pdx1 (amino acids 1-283) with a C-terminal GFP tag
V5-SPOP in HeLa cells
  V5-SPOP localization, high Pdx1 expression: SPOP is diffuse
  V5-SPOP localization, low Pdx1 expression: SPOP localizes to nuclear speckles
  SPOP relocalization from nuclear speckles by Pdx1 variant: relocalization of SPOP from nuclear speckles
V5-SPOP in HeLa cells; listed as WT–Pdx1
  V5-SPOP localization, high Pdx1 expression: primarily diffuse V5-SPOP
  V5-SPOP localization, low Pdx1 expression: V5-SPOP localizes to nuclear speckles
V5-SPOP in HeLa cells; listed as GFP–Pdx1–WT
  SPOP relocalization from nuclear speckles by Pdx1 variant: SPOP relocalized from nuclear speckles into the diffuse nucleoplasm
HeLa cells
  localization / phase separation in cells: did not undergo observable partitioning to any nuclear body; also recorded: do not form phase-separated compartments in cells
HeLa cells; listed as GFP–Pdx1
  localization / phase separation in cells: does not localize to punctate structures in cells; also recorded: localizes to the nucleus (marked by DAPI, blue) and does not perturb the formation of or partition to nuclear speckles
SPOP
  type of ubiquitination previously described: primarily monoubiquitination
[1]; listed as Pdx1-GFP-WT
  SPOP-dependent Pdx1 stability: almost entirely degraded
[1]; listed as Pdx1–WT
  SPOP-dependent Pdx1 stability: readily degraded
